Assays:
[1] = test system: veratrine-evoked release of glutamate from rat brain slices; assay: veratrine-evoked release of glutamate from rat brain slices; assay type: cell-based; conditions: read-out: IC50(μM) Glutamate Release (P95 limits)
Method: (§1) Compounds of formula (Ia) were tested for their effect on veratrine-evoked release of glutamate from rat brain slices according to the protocol described in Epilepsia 27(5): 490-497, 1986. The protocol for testing for inhibition of DHFR activity was a modification of that set out in Biochemical Pharmacology Vol.20 pp 561-574, 1971.
(§2) The results are given in Table 1, the IC₅₀ being the concentration of compound to […] 50% of DHFR enzyme activity.

[2] = target: T1, Rat Liver DHFR (Rattus norvegicus, UniProt Q920D2); assay: inhibition of DHFR activity; assay type: biochemical; conditions: rat liver DHFR enzyme activity; read-out: IC50(μM) Rat Liver DHFR (P95 limits)
T1 construct: from tissue; host or cells: rat liver
T1 sequence (Q920D2 1-187): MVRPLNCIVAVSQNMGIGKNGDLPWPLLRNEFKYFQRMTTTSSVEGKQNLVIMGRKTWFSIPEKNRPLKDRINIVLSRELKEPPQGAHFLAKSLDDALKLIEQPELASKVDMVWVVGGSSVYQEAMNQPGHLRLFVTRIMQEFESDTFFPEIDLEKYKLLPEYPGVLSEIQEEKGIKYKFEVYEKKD
Method: as §1, §2

[3] = test system: release of the excitatory amino acids, glutamate and aspartate; conditions: Leach et al Epilepsia 27, 490-497 1986; Miller et al 1987; cited from earlier work

Cc1c(N)nc(N)nc1-c1ccc(Cl)cc1 [*, 2,4-Diamino-5-methyl-6-(4-chlorophenyl)pyrimidine]
IC50 [1]: > 10 µM
IC50 [2]: > 55 µM

Nc1cc(-c2cccc(Cl)c2Cl)nc(N)n1 [Example 1, 2,4-Diamino-6-(2,3-dichlorophenyl)pyrimidine]
IC50 [1]: 10 µM
IC50 [2]: < 100 µM

Nc1cc(-c2ccccc2Cl)nc(N)n1 [Example 2, 2,4-Diamino-6-(2-chlorophenyl)pyrimidine]
IC50 [1]: 10 µM
IC50 [2]: > 100 µM

Nc1cc(-c2ccc(Cl)cc2Cl)nc(N)n1 [Example 3, 2,4-Diamino-6-(2,4-Dichlorophenyl)pyrimidine]
IC50 [1]: > 10 µM
IC50 [2]: < 100 µM

Nc1cc(-c2cccc3ccccc23)nc(N)n1 [Example 4, 2,4-Diamino-6-(1-naphthyl)pyrimidine]
IC50 [1]: > 10 µM
IC50 [2]: 100 µM

Nc1nnc(-c2cccc(Cl)c2Cl)c(N)n1 [lamotrigine, 3,5-diamino-6-(2,3-dichlorophenyl)-1,2,4-triazine]
inhibition of release of glutamate and aspartate [3]: inhibit the release of the excitatory amino acids, glutamate and aspartate
